# Measured values: the supplement of paper PMC10307832
# Key:
# Assay in all cases: relative viability (nuclei count vs DMSO), 5 days (fraction); higher = more cells survive
# SK-MES-1 = tested on: SK-MES-1
# How it was run: (§1)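 Values are medians from duplicate plates. Each reflects relative viability, defined as the nuclei count of treated wells over that of vehicle wells. Lung cancer cell lines in 1536-well plates were pin-tool dosed one day after seeding with one drug alone or with a fixed anchor-drug dose plus five library-drug doses (not always all listed) in √10 steps, then fixed, stained and imaged at 4× after 5 days.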
# NCI-H1734 = tested on: NCI-H1734
# How it was run: as §1
# HCC-827 = tested on: HCC-827
# How it was run: as §1
# NCI-H2009 = tested on: NCI-H2009
# How it was run: as §1
# LOU-NH91 = tested on: LOU-NH91
# How it was run: as §1
# HARA = tested on: HARA
# How it was run: as §1
# NCI-H1395 = tested on: NCI-H1395
# How it was run: as §1
# BEN = tested on: BEN
# How it was run: as §1
# NCI-H661 = tested on: NCI-H661
# How it was run: as §1
# NCI-H2405 = tested on: NCI-H2405
# How it was run: as §1
# NCI-H1993 = tested on: NCI-H1993
# How it was run: as §1
# NCI-H2170 = tested on: NCI-H2170
# How it was run: as §1
# SK-LU-1 = tested on: SK-LU-1
# How it was run: as §1
# NCI-H1437 = tested on: NCI-H1437
# How it was run: as §1
# NCI-H2087 = tested on: NCI-H2087
# How it was run: as §1
# NCI-H647 = tested on: NCI-H647
# How it was run: as §1
# NCI-H1792 = tested on: NCI-H1792
# How it was run: as §1
# EKVX = tested on: EKVX
# How it was run: as §1
# NCI-H1355 = tested on: NCI-H1355
# How it was run: as §1
# HCC-366 = tested on: HCC-366
# How it was run: as §1
structure (smiles),measurement,setting,value
O=c1cc(N2CCOCC2)oc2c(-c3cccc4c3sc3ccccc34)cccc12 + Cc1nc(NC(=O)N2CCC[C@H]2C(N)=O)sc1-c1ccnc(C(C)(C)C(F)(F)F)c1 [Alpelisib] (partner 2 µM),relative viability,SK-MES-1; first compound 0.01 µM,0.842
same,relative viability,SK-MES-1; first compound 0.03162 µM,0.839
same,relative viability,SK-MES-1; first compound 0.1 µM,0.867
same,relative viability,SK-MES-1; first compound 0.3162 µM,0.935
same,relative viability,SK-MES-1; first compound 1 µM,0.937
same,relative viability,NCI-H1734; first compound 0.01 µM,0.7
same,relative viability,NCI-H1734; first compound 0.03162 µM,0.727
same,relative viability,NCI-H1734; first compound 0.1 µM,0.686
same,relative viability,NCI-H1734; first compound 0.3162 µM,0.698
same,relative viability,NCI-H1734; first compound 1 µM,0.623
same,relative viability,HCC-827; first compound 0.01 µM,0.918
same,relative viability,HCC-827; first compound 0.03162 µM,0.931
same,relative viability,HCC-827; first compound 0.1 µM,0.911
same,relative viability,HCC-827; first compound 0.3162 µM,0.947
same,relative viability,HCC-827; first compound 1 µM,0.914
same,relative viability,NCI-H2009; first compound 0.01 µM,1.12
same,relative viability,NCI-H2009; first compound 0.03162 µM,1.14
same,relative viability,NCI-H2009; first compound 0.1 µM,1.18
same,relative viability,NCI-H2009; first compound 0.3162 µM,1.15
same,relative viability,NCI-H2009; first compound 1 µM,1.13
same,relative viability,LOU-NH91; first compound 0.01 µM,0.656
same,relative viability,LOU-NH91; first compound 0.03162 µM,0.698
same,relative viability,LOU-NH91; first compound 0.1 µM,0.726
same,relative viability,LOU-NH91; first compound 0.3162 µM,0.759
same,relative viability,LOU-NH91; first compound 1 µM,0.69
same,relative viability,HARA; first compound 0.01 µM,0.854
same,relative viability,HARA; first compound 0.03162 µM,0.789
same,relative viability,HARA; first compound 0.1 µM,0.88
same,relative viability,HARA; first compound 0.3162 µM,0.809
same,relative viability,HARA; first compound 1 µM,0.845
same,relative viability,NCI-H1395; first compound 0.01 µM,1.1
same,relative viability,NCI-H1395; first compound 0.03162 µM,0.976
same,relative viability,NCI-H1395; first compound 0.1 µM,0.989
same,relative viability,NCI-H1395; first compound 0.3162 µM,1.09
same,relative viability,NCI-H1395; first compound 1 µM,0.956
same,relative viability,BEN; first compound 0.01 µM,0.946
same,relative viability,BEN; first compound 0.03162 µM,1.16
same,relative viability,BEN; first compound 0.1 µM,0.951
same,relative viability,BEN; first compound 0.3162 µM,0.951
same,relative viability,BEN; first compound 1 µM,1.05
same,relative viability,NCI-H661; first compound 0.01 µM,0.556
same,relative viability,NCI-H661; first compound 0.03162 µM,0.243
same,relative viability,NCI-H661; first compound 0.1 µM,0.591
same,relative viability,NCI-H661; first compound 0.3162 µM,0.606
same,relative viability,NCI-H661; first compound 1 µM,0.506
same,relative viability,NCI-H2405; first compound 0.01 µM,0.895
same,relative viability,NCI-H2405; first compound 0.03162 µM,0.885
same,relative viability,NCI-H2405; first compound 0.1 µM,0.838
same,relative viability,NCI-H2405; first compound 0.3162 µM,0.835
same,relative viability,NCI-H2405; first compound 1 µM,0.827
same,relative viability,NCI-H1993; first compound 0.01 µM,0.658
same,relative viability,NCI-H1993; first compound 0.03162 µM,0.741
same,relative viability,NCI-H1993; first compound 0.1 µM,0.797
same,relative viability,NCI-H1993; first compound 0.3162 µM,0.791
same,relative viability,NCI-H1993; first compound 1 µM,0.722
same,relative viability,NCI-H2170; first compound 0.01 µM,0.83
same,relative viability,NCI-H2170; first compound 0.03162 µM,0.782
same,relative viability,NCI-H2170; first compound 0.1 µM,0.837
same,relative viability,NCI-H2170; first compound 0.3162 µM,0.817
same,relative viability,NCI-H2170; first compound 1 µM,0.735
same,relative viability,SK-LU-1; first compound 0.03162 µM,0.966
same,relative viability,SK-LU-1; first compound 0.1 µM,0.985
same,relative viability,SK-LU-1; first compound 0.3162 µM,1.09
same,relative viability,SK-LU-1; first compound 1 µM,1.01
same,relative viability,NCI-H1437; first compound 0.01 µM,0.931
same,relative viability,NCI-H1437; first compound 0.03162 µM,0.937
same,relative viability,NCI-H1437; first compound 0.1 µM,1.02
same,relative viability,NCI-H1437; first compound 0.3162 µM,0.993
same,relative viability,NCI-H1437; first compound 1 µM,0.95
same,relative viability,NCI-H2087; first compound 0.01 µM,1.12
same,relative viability,NCI-H2087; first compound 0.03162 µM,1.02
same,relative viability,NCI-H2087; first compound 0.1 µM,1.13
same,relative viability,NCI-H2087; first compound 0.3162 µM,1.23
same,relative viability,NCI-H2087; first compound 1 µM,1.16
same,relative viability,NCI-H647; first compound 0.01 µM,1.18
same,relative viability,NCI-H647; first compound 0.03162 µM,1.2
same,relative viability,NCI-H647; first compound 0.1 µM,1.24
same,relative viability,NCI-H647; first compound 0.3162 µM,1.11
same,relative viability,NCI-H647; first compound 1 µM,0.913
same,relative viability,NCI-H1792; first compound 0.01 µM,0.677
same,relative viability,NCI-H1792; first compound 0.03162 µM,0.628
same,relative viability,NCI-H1792; first compound 0.1 µM,0.709
same,relative viability,NCI-H1792; first compound 0.3162 µM,0.672
same,relative viability,NCI-H1792; first compound 1 µM,0.674
same,relative viability,EKVX; first compound 0.01 µM,0.88
same,relative viability,EKVX; first compound 0.03162 µM,0.868
same,relative viability,EKVX; first compound 0.1 µM,0.883
same,relative viability,EKVX; first compound 0.3162 µM,0.858
same,relative viability,EKVX; first compound 1 µM,0.824
same,relative viability,NCI-H1355; first compound 0.01 µM,0.871
same,relative viability,NCI-H1355; first compound 0.03162 µM,0.855
same,relative viability,NCI-H1355; first compound 0.3162 µM,0.903
same,relative viability,NCI-H1355; first compound 1 µM,0.82
same,relative viability,HCC-366; first compound 0.01 µM,0.386
same,relative viability,HCC-366; first compound 0.03162 µM,0.469
same,relative viability,HCC-366; first compound 0.1 µM,0.44
same,relative viability,HCC-366; first compound 0.3162 µM,0.372
same,relative viability,HCC-366; first compound 1 µM,0.367
